Test results: ChEMBL document CHEMBL5136994, “Conjugates of Porphyrinoid-Based Photosensitizers with Cytotoxic Drugs: Current Progress and Future Directions toward Selective Photodynamic Therapy” (J Med Chem, 2022)

Experiments:
A549 [1] = experiment: Cytotoxicity against human A549 cells assessed as cell growth inhibition by WST assay; type: functional, cell-based
A549 [2] = experiment: Photodynamic cytotoxicity against human A549 cells assessed as cell growth inhibition upon light irradiation by WST assay; type: functional, cell-based
FaDu [3] = experiment: Photodynamic cytotoxicity against human FaDu cells assessed as cell growth inhibition upon 1 J/cm2 light irradiation; type: functional, cell-based; conditions: light or radiation study
UMUC3 [4] = experiment: Photodynamic cytotoxicity against human UMUC3 cells assessed as cell growth inhibition upon 1 J/cm2 light irradiation; type: functional, cell-based; conditions: UMUC3, light or radiation study
UMUC3 [5] = experiment: Photodynamic cytotoxicity against human UMUC3 cells assessed as cell growth inhibition upon light irradiation; type: functional, cell-based; conditions: UMUC3, light or radiation study
FaDu [6] = experiment: Photodynamic cytotoxicity against human FaDu cells assessed as cell growth inhibition upon light irradiation; type: functional, cell-based; conditions: light or radiation study
HBL-100 [7] = experiment: Photodynamic cytotoxicity against human HBL-100 cells assessed as cell growth inhibition incubated for 24 hrs followed by medium replacement without compound upon 1 J/cm2 light irradiation and measured after 24 hrs by MTT assay; type: functional, cell-based
HBL-100 [8] = experiment: Photodynamic cytotoxicity against human HBL-100 cells assessed as cell growth inhibition incubated for 24 hrs by MTT assay; type: functional, cell-based
NCI-H460 [9] = experiment: Cytotoxicity against human H460M2 cells assessed as cell growth inhibition incubated for 24 hrs by MTT assay; type: functional, cell-based
NCI-H460 [10] = experiment: Photodynamic cytotoxicity against human H460M2 cells assessed as cell growth inhibition incubated for 24 hrs followed by medium replacement without compound upon 1 J/cm2 light irradiation and measured after 24 hrs by MTT assay; type: functional, cell-based
HeLa [11] = experiment: Photodynamic cytotoxicity against human HeLa cells assessed as cell growth inhibition incubated for 24 hrs followed by medium replacement without compound upon 1 J/cm2 light irradiation and measured after 24 hrs by MTT assay; type: functional, cell-based
HeLa [12] = experiment: Cytotoxicity against human HeLa cells assessed as cell growth inhibition incubated for 24 hrs by MTT assay; type: functional, cell-based
A549 [13] = experiment: Cytotoxicity against human A549 cells assessed as cell growth inhibition; type: functional, cell-based
A549 [14] = experiment: Photodynamic cytotoxicity against human A549 cells assessed as cell growth inhibition upon light irradiation; type: functional, cell-based; conditions: A549, light or radiation study
HeLa [15] = experiment: Photodynamic cytotoxicity against human HeLa cells assessed as cell growth inhibition incubated for 4 hrs followed by fresh medium replacement without compound upon 6.95 J/cm2 light irradiation for 15 mins and further incubated for 44 hrs by resazurin based fluorimetry; type: functional; conditions: light or radiation study
HeLa [16] = experiment: Cytotoxicity against human HeLa cells assessed as cell growth inhibition incubated for […] followed by fresh medium replacement without compound and further incubated for 44 hrs under dark condition by resazurin based fluorimetry; type: functional
[17] = Homo sapiens, A549, light or radiation study

C1=Cc2nc1c(-c1ccncc1)c1ccc([nH]1)c(-c1ccncc1)c1nc(c(-c3ccc(OCc4cn(CCc5nccc6c5[nH]c5ccccc56)nn4)cc3)c3ccc([nH]3)c2-c2ccncc2)C=C1
IC50 (A549 [1]; Homo sapiens, A549): > 100 µM | IC50 (A549 [2]; [17]): 43.1 µM

C[n+]1ccc(-c2c3nc(c(-c4cc[n+](C)cc4)c4ccc([nH]4)c(-c4cc[n+](C)cc4)c4nc(c(-c5cc[n+](C)cc5)c5ccc2[nH]5)C=C4)C=C3)cc1
IC50 (A549 [1]; Homo sapiens, A549): > 100 µM | IC50 (A549 [2]; [17]): 0.3 µM

CCc1c(C)c2cc3nc(cc4nc(c5c6[nH]c(cc1[nH]2)c(C)c6C(=O)C5)[C@@H](CCC(=O)O)[C@@H]4C)C(C)=C3C(C)OCc1cccc(C#Cc2cccc(Nc3ncnc4cc(OCCOC)c(OCCOC)cc34)c2)c1 (stereo partly drawn)
IC50 (FaDu [3]): 0.031 µM | IC50 (UMUC3 [4]): 0.054 µM

CCCCCCOC(C)C1=C(C)c2cc3nc(c4c5[nH]c(cc6[nH]c(cc1n2)c(C)c6CC)c(C)c5C(=O)C4)[C@@H](CCC(=O)O)[C@@H]3C (stereo partly drawn)
IC50 (UMUC3 [5]): 0.068 µM | IC50 (FaDu [6]): 0.043 µM

C[n+]1ccc(-c2c3nc(c(-c4cc[n+](C)cc4)c4ccc([nH]4)c(-c4cc[n+](C)cc4)c4nc(c(-c5ccc(C(=O)NCCOCCOCCNC(=O)CN6CCNCCNCC6)cc5)c5ccc2[nH]5)C=C4)C=C3)cc1
IC50 (HBL-100 [7]): > 100 µM | IC50 (HBL-100 [8]): > 100 µM | IC50 (NCI-H460 [9]): > 100 µM | IC50 (NCI-H460 [10]): > 100 µM | IC50 (HeLa [11]): > 100 µM | IC50 (HeLa [12]): > 100 µM

C1=Cc2nc1c(-c1ccccc1)c1ccc([nH]1)c(-c1ccccc1)c1nc(c(-c3ccc(OCc4cn(CC[n+]5c6ccccc6cc6[nH]c7ccccc7c65)nn4)cc3)c3ccc([nH]3)c2-c2ccccc2)C=C1
IC50 (A549 [13]): 33.6 µM | IC50 (A549 [14]): 2.5 µM

CCCCCCOC(C)C1=C(C)c2cc3nc(c4c5[nH]c(cc6[nH]c(cc1n2)c(C)c6CC)c(C)c5C(=O)C4)[C@@H](CCC(=O)NCCCCn1cc(-c2cccc(Nc4ncnc5cc(OCCOC)c(OCCOC)cc45)c2)nn1)[C@@H]3C (stereo partly drawn)
IC50 (FaDu [3]): 0.018 µM | IC50 (UMUC3 [4]): 0.02 µM

CCc1c(C)c2cc3nc(cc4nc(c5c6[nH]c(cc1[nH]2)c(C)c6C(=O)C5)[C@@H](CCC(=O)OC)[C@@H]4C)C(C)=C3C(C)OCc1cccc(C#Cc2cccc(Nc3ncnc4cc(OCCOC)c(OCCOC)cc34)c2)c1 (stereo partly drawn)
IC50 (FaDu [3]): 0.035 µM | IC50 (UMUC3 [4]): 0.059 µM

C1=Cc2nc1c(-c1ccncc1)c1ccc([nH]1)c(-c1ccncc1)c1nc(c(-c3ccncc3)c3ccc([nH]3)c2-c2ccncc2)C=C1
IC50 (HeLa [15]): 5.8 µM | IC50 (HeLa [16]): > 100 µM

CCc1c(C)c2cc3nc(cc4nc(c5c6[nH]c(cc1[nH]2)c(C)c6C(=O)C5)[C@@H](CCC(=O)OC)[C@@H]4C)C(C)=C3C(C)OCc1ccc(C#Cc2cccc(Nc3ncnc4cc(OCCOC)c(OCCOC)cc34)c2)cc1 (stereo partly drawn)
IC50 (FaDu [3]): 0.06 µM | IC50 (UMUC3 [4]): 0.021 µM

CCc1c(C)c2cc3nc(cc4nc(c5c6[nH]c(cc1[nH]2)c(C)c6C(=O)C5)[C@@H](CCC(=O)OC)[C@@H]4C)C(C)=C3COCc1cccc(C#Cc2cccc(Nc3ncnc4cc(OCCOC)c(OCCOC)cc34)c2)c1
IC50 (FaDu [3]): 0.023 µM | IC50 (UMUC3 [4]): 0.076 µM

C[n+]1ccc(-c2c3nc(c(-c4cc[n+](C)cc4)c4ccc([nH]4)c(-c4cc[n+](C)cc4)c4nc(c(-c5ccc(OCc6cn(CCc7c8[nH]c9ccccc9c8cc[n+]7C)nn6)cc5)c5ccc2[nH]5)C=C4)C=C3)cc1
IC50 (A549 [1]; a549): > 100 µM | IC50 (A549 [2]; a549): 0.06 µM
